Read-outs that look alike come from different tables or passages of the source.
Experiments:
[1] = clinical; conditions: human, po
Experimental: A 2-part study was conducted in subjects with solid tumors (“Study 2”). […] The dose levels increased to 75 mg/m^2, 150 mg/m^2, 225 mg/m^2, 300 mg/m^2, 375 mg/m^2, and 400 mg/m^2. In the second part of this study, half of the group starting at a selected dose from stage 1, was given over two consecutive days every three weeks. A total of 15 (n=40) subjects enrolled in this study.
All subject PK data within the dataset were analyzed using Phoenix 8.0. […] Individual time points for the terminal slope were automatically selected by the software, and linear up—log down interpolation calculation method was used for the analysis. Individual BLQ samples were set to 0.00 ng/ml for noncompartmental analysis unless the PK sample occurred between two PK samples above the limit of quantification, in which case the PK sample was set to missing. For the calculation of summary statistics and mean concentration figures, all BLQ samples were set to 0.00 ng/ml.

[2] = parameters: Dose Normalized AUC: unit not given beside the values; conditions: cited from earlier work
[3] = Two phase 1 studies of docetaxel capsules administered orally in combination with HM30181A; format: in vivo, human
[4] = IV 20 mg/m^2, infusion 1 h, n = 1
[5] = IV 20 mg/m^2, infusion 24 h, n = 1
[6] = IV 30 mg/m^2, infusion 1.58 (0.80) h, n = 2
[7] = IV 40 mg/m^2, infusion 1 h, n = 1
[8] = IV 40 mg/m^2, infusion 24 h, n = 3
[9] = IV 55 mg/m^2, infusion 1.68 (0.75) h, n = 3
[10] = IV 55 mg/m^2, infusion 24 h, n = 4
[11] = IV 70 mg/m^2, infusion 1.37 (0.53) h, n = 2
[12] = IV 70 mg/m^2, infusion 24 h, n = 3
[13] = IV 85 mg/m^2, infusion 1.61 (0.81) h, n = 6
[14] = IV 90 mg/m^2, infusion 24 h, n = 5
[15] = IV 100 mg/m^2, infusion 2.03 (0.09) h, n = 4
[16] = IV 115 mg/m^2, infusion 1.84 (0.28) h, n = 4

CC(=O)O[C@@]12CO[C@@H]1C[C@H](O)[C@@]1(C)C(=O)[C@H](O)C3=C(C)[C@@H](OC(=O)[C@H](O)[C@@H](NC(=O)OC(C)(C)C)c4ccccc4)C[C@@](O)([C@@H](OC(=O)c4ccccc4)[C@H]21)C3(C)C [docetaxel, (2aR,4S,4aS,6R,9S,11S,12S,12aR,12b S)-12b-acetoxy-9-(((2R,3S)-3-((tert-butoxycarbonyl)amino)-2-hydroxy-3-phenylpropanoyl)oxy)-4,6,11-trihydroxy-4a,8,13,13-tetramethyl-5-oxo-2a,3,4,4a,5,6,9,10,11,12,12a, 12b-dodecahydro-1H-7,11-methanocyclodeca[3,4]benzo[1,2-b]oxet-12-yl benzoate]
half-life ([1]; in vivo, 225 mg/m2): 54.4 h
Cmax ([1]; in vivo, 225 mg/m2, Cmax, oral 225 mg/m^2 with Compound A, individual subjects): 118 ng/mL
AUC(0-t) ([1]; plasma, 35 mg/m2, AUC0-12, oral 35 mg/m^2 with Compound A, Mean, N=4): 184 ng·h/mL
AUC(0-t) ([1]; plasma, 35 mg/m2, AUC0-24, oral 35 mg/m^2 with Compound A, Mean, N=4): 211 ng·h/mL
AUC(0-t) ([1]; plasma, 35 mg/m2, AUC0-48, oral 35 mg/m^2 with Compound A, Mean, N=4): 240 ng·h/mL
AUC(0-inf) ([1]; plasma, 35 mg/m2, AUCINF—obs, oral 35 mg/m^2 with Compound A, Mean, N=4): 296 ng·h/mL
Cmax ([1]; plasma, 35 mg/m2, Cmax, oral 35 mg/m^2 with Compound A, Mean, N=4): 69.1 ng/mL
Cmax ([1]; plasma, 35 mg/m2, Cmax, oral 35 mg/m^2 with Compound A, individual subjects): 38 to 157 ng/mL
half-life ([1]; plasma, 35 mg/m2, t1/2, oral 35 mg/m^2 with Compound A, Mean, N=4): 27.6 h
half-life ([1]; plasma, 35 mg/m2, t1/2, oral 35 mg/m^2 with Compound A, mean): 29.2 h
concentration at 24 hr ([1]; plasma, 35 mg/m^2, Analyte Concentration, oral 35 mg/m^2, cohort 1, time 24.0 hr, individual subjects): 1.25 ng/mL
AUC(0-t) ([1]; plasma, 75 mg/m2, AUC0-48, oral 75 mg/m^2 with Compound A, Mean, N=3): 675 ng·h/mL
AUC(0-inf) ([1]; plasma, 75 mg/m2, AUCINF—obs, oral 75 mg/m^2 with Compound A, Mean, N=3): 815 ng·h/mL
Cmax ([1]; plasma, 75 mg/m2, Cmax, oral 75 mg/m^2 with Compound A, Mean, N=3): 172 ng/mL
half-life ([1]; plasma, 75 mg/m2, Reported half-life, oral 75 mg/m^2, individual values, sampling to 168 h, LLOQ 0.2 ng/mL): 51.4 h
half-life ([1]; plasma, 75 mg/m2, t1/2, oral 75 mg/m^2 with Compound A, Mean, N=3): 53.1 h
half-life ([1]; plasma, 75 mg/m2, t1/2, oral 75 mg/m^2 with Compound A, individual subjects): 51.4 h
half-life ([1]; plasma, 75 mg/m2, t1/2, oral 75 mg/m^2 with Compound A, mean): 53.1 h
concentration at 0.25 hr ([1]; plasma, 75 mg/m^2, Analyte Concentration, oral 75 mg/m^2, cohort 2, time 0.250 hr, individual subjects): 28 ng/mL
Tmax ([1]; plasma, 150 mg/m2): 2.67 h
AUC(0-t) ([1]; plasma, 150 mg/m2, AUC0-12, oral 150 mg/m^2 with Compound A, individual subjects): 446 ng·h/mL
Cmax ([1]; plasma, 150 mg/m2, Cmax, oral 150 mg/m^2 with Compound A, individual subjects): 112 to 136 ng/mL
half-life ([1]; plasma, 150 mg/m2, Reported half-life, oral 150 mg/m^2, individual values, sampling to 168 h, LLOQ 0.2 ng/mL): 72 h
half-life ([1]; plasma, 150 mg/m2, t1/2, oral 150 mg/m^2 with Compound A, individual subjects): 72 h
Tmax ([1]; plasma, 225 mg/m2): 0.5 h
AUC(0-t) ([1]; plasma, 225 mg/m2, AUC0-24, oral 225 mg/m^2 with Compound A, Mean, N=3): 792 ng·h/mL
AUC(0-t) ([1]; plasma, 225 mg/m2, AUC0-24, oral 225 mg/m^2 with Compound A, individual subjects): 986 ng·h/mL
AUC(0-t) ([1]; plasma, 225 mg/m2, AUC0-48, oral 225 mg/m^2 with Compound A, Mean, N=3): 914 ng·h/mL
AUC(0-inf) ([1]; plasma, 225 mg/m2, AUCINF—obs, oral 225 mg/m^2 with Compound A, Mean, N=3): 1190 ng·h/mL
half-life ([1]; plasma, 225 mg/m2, t1/2, oral 225 mg/m^2 with Compound A, Mean, N=3): 56 h
half-life ([1]; plasma, 225 mg/m2, t1/2, oral 225 mg/m^2 with Compound A, individual subjects): 67.3 h
concentration at 1 hr ([1]; plasma, 225 mg/m^2, Analyte Concentration, oral 225 mg/m^2, cohort 4, time 1.00 hr, individual subjects): 55.6 ng/mL
concentration at 2 hr ([1]; plasma, 225 mg/m^2, Analyte Concentration, oral 225 mg/m^2, cohort 4, time 2.00 hr, individual subjects): 118 ng/mL
concentration at 4 hr ([1]; plasma, 225 mg/m^2, Analyte Concentration, oral 225 mg/m^2, cohort 4, time 4.00 hr, individual subjects): 28 ng/mL
AUC0-24 [2, 4]: 960 ng·h/mL
Dose Normalized AUC [2, 4]: 48
t1/2 γ [2, 4]: 2.2 h
AUC0-24 [2, 5]: 920 ng·h/mL
Dose Normalized AUC [2, 5]: 46
AUC0-24 [2, 6]: 1260 ng·h/mL
Cmax [2, 6]: 640 (450) ng/ml
Dose Normalized AUC [2, 6]: 42
t1/2 γ [2, 6]: 4.6 h
AUC0-24 [2, 7]: 670 ng·h/mL
Cmax [2, 7]: 420 ng/mL
Dose Normalized AUC [2, 7]: 16.75
t1/2 γ [2, 7]: 3.8 h
AUC0-24 [2, 8]: 2190 ng·h/mL
Dose Normalized AUC [2, 8]: 54.75
AUC0-24 [2, 9]: 1420 ng·h/mL
Cmax [2, 9]: 820 (380) ng/ml
Dose Normalized AUC [2, 9]: 25.82
t1/2 γ [2, 9]: 2 h
AUC0-24 [2, 10]: 2560 ng·h/mL
Dose Normalized AUC [2, 10]: 46.55
AUC0-24 [2, 11]: 2790 ng·h/mL
Cmax [2, 11]: 1910 (320) ng/ml
Dose Normalized AUC [2, 11]: 39.86
t1/2 γ [2, 11]: 2.5 h
AUC0-24 [2, 12]: 3470 ng·h/mL
Dose Normalized AUC [2, 12]: 49.57
AUC0-24 [2, 13]: 4100 ng·h/mL
Cmax [2, 13]: 2420 (920) ng/ml
Dose Normalized AUC [2, 13]: 48.24
t1/2 γ [2, 13]: 13.6 h
AUC0-24 [2, 14]: 7810 ng·h/mL
Dose Normalized AUC [2, 14]: 86.78
AUC0-24 [2, 15]: 5930 ng·h/mL
Cmax [2, 15]: 2410 (250) ng/ml
Dose Normalized AUC [2, 15]: 59.30
t1/2 γ [2, 15]: 18.5 h
AUC0-24 [2, 16]: 5190 ng·h/mL
Cmax [2, 16]: 2680 (930) ng/ml
Dose Normalized AUC [2, 16]: 45.13
t1/2 γ [2, 16]: 9.6 h
AUC ([3]; human, plasma, iv, 75 mg/m2, IV 75 mg/m^2): 2420 ng·h/mL
AUC ([3]; human, plasma, po, oral 35 mg/m^2 with HM30181A 15 mg): 248 ng·h/mL
AUC ([3]; human, plasma, po, oral 75 mg/m^2 with HM30181A 15 mg): 692 ng·h/mL
AUC ([3]; human, plasma, po, oral 150 mg/m^2 with HM30181A 15 mg): 888 ng·h/mL
AUC ([3]; human, plasma, po, oral 225 mg/m^2 with HM30181A 15 mg): 1400 ng·h/mL
bioavailability ([3]; human, plasma, oral 75 mg/m^2 with HM30181A 15 mg, read-out: Individual F %): 20 to 31%
Tmax ([3]; human, plasma, oral capsules in combination with HM30181A): 3 to 4 h
half-life ([3]; human, plasma, oral capsules in combination with HM30181A, read-out: terminal phase half-life (converted)): ~56 h
Cmax as % of that observed after IV administration ([3]; oral with HM30181A vs IV): 9.5-13%

Reference: patent US10849893B2 (Athenex HK Innovative Limited, priority 2018, dated 2020)
